Laboratory results from article PMC10763615, “Identification and engineering of potent cyclic peptides with selective or promiscuous binding through biochemical profiling and bioinformatic data analysis” (RSC Chemical Biology, 2023).
Where two headings read alike, the source gives them in different places. Positions of bridges follow the written chain, without caps; N, C: chain ends. Residues, ends and D or L forms follow the SMILES beside them.

Tests used:
Type in all cases: binding
FGF-R4 ECD = target: T1, FGF-R4 ECD (Homo sapiens, UniProt P22455); test: single concentration BLI of crude peptides; conditions: read-out: KD (4)
T1 construct: DNA constructs for the extracellular domain (ECD) of human FGF-; HPC4 (C); made in house; host or cells: HEK 293-6E
T1 sequence (P22455 22-369 limits assumed): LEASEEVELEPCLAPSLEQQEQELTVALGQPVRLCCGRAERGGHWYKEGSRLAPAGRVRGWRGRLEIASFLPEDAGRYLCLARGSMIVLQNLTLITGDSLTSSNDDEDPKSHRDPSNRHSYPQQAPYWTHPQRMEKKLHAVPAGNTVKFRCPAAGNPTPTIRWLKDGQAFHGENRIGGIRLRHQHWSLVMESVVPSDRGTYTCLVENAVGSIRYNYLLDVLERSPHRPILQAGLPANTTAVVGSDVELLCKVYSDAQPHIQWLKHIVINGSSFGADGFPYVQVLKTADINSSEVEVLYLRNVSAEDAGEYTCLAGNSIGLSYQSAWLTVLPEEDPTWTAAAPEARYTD
Experimental: (§1) KD affinity binding measurements were obtained by biolayer interferometry (BLI) instruments (Fortebio Octet HTX, or Sartorius Octet RH16 using either 8 or 16 channel mode.
For single concentration binding experiments, 50 μM peptide stocks in folding buffer were diluted 1:50 in mRNA display selection buffer (PBS pH7.4 supplemented with 0.05% Tween-20 and 0.01% BSA) in either a 96 well black plate, or a 384 well tilted bottom microplate (ForteBio). Biotinylated FGF-R protein was loaded onto Streptavidin-functionalised biosensors (ForteBio) and immersed into ~1 μM peptide to obtain association kinetics curves. Dissociation kinetics curves were obtained by subsequent immersion of ligand-associated loaded sensors into a 1:50 dilution of folding buffer in mRNA display selection buffer. Fitted KD data was adjusted for concentration as determined by UPLC-CAD. […]

FGF-R3C ECD = target: T2, FGF-R3C ECD (Homo sapiens, UniProt P22607); test: biochemical; parameters: DNA constructs for the extracellular domain (ECD) of human FGF-; HPC4 (C); made in house; host or cells: HEK 293-6E
T2 sequence (P22607 23-375 limits assumed): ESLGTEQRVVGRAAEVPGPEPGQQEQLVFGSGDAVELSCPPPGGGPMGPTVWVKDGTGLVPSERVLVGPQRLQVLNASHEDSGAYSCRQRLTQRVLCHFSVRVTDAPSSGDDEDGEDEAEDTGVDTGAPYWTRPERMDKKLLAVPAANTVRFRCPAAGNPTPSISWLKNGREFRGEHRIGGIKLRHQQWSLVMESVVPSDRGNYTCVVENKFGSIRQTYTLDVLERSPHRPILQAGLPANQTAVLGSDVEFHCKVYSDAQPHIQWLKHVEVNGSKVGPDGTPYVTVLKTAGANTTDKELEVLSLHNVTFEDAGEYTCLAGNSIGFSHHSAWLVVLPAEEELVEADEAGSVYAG
Experimental: as §1
(§2) For single concentration binding experiments, 50 μM peptide stocks in folding buffer were diluted 1:50 in mRNA display selection buffer (PBS pH7.4 supplemented with 0.05% Tween-20 and 0.01% BSA) in either a 96 well black plate, or a 384 well tilted bottom microplate (ForteBio). Biotinylated FGF-R protein was loaded onto Streptavidin-functionalised biosensors (ForteBio) and immersed into ~1 μM peptide to obtain association kinetics curves. Dissociation kinetics curves were obtained by subsequent immersion of ligand-associated loaded sensors into a 1:50 dilution of folding buffer in mRNA display selection buffer. Fitted KD data was adjusted for concentration as determined by UPLC-CAD.
(§3) For accurate multi-concentration KD determination, dilution series of each peptide were made, and association and dissociation kinetics curves were obtained as above for each concentration to fit a multi-point KD binding model. Data collection and analysis was performed using the Octet Instrument Control […]
(§4) concentration assay kinetics curves shown in supplementary Figure S 19-24.

FGF-R1C ECD = target: T3, FGF-R1C ECD (Homo sapiens, UniProt P11362); test: biochemical; parameters: DNA constructs for the extracellular domain (ECD) of human FGF-; HPC4 (C); made in house; host or cells: HEK 293-6E
T3 sequence (P11362 22-376 limits assumed): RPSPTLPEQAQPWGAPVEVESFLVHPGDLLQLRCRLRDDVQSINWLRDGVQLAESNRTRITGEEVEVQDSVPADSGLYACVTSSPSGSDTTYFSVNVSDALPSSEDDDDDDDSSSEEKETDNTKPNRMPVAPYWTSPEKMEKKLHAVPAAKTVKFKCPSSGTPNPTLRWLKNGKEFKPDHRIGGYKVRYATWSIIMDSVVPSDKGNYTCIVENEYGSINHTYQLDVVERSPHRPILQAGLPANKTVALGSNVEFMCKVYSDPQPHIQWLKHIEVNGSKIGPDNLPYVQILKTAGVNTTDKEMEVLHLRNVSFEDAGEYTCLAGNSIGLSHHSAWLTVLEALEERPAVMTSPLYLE
Experimental: as §1, §2, §3, §4

[1] = crude T18 selection 1 (1:1:1) peptides, single concentration BLI (Table S4)
[2] = crude NNK peptides, single concentration BLI (Table S3)

## CC[C@H](C)[C@@H]1NC(=O)[C@H](CC(=O)O)NC(=O)[C@H](Cc2ccc(O)cc2)NC(=O)[C@@H](NC(=O)[C@H](CCSC)NC(C)=O)CSSC[C@@H](C(=O)NCC(=O)N[C@@H](CO)C(=O)NCC(=O)N[C@@H](CO)C(=O)N[C@@H](CC(=O)O)C(=O)N[C@@H](Cc2ccc(O)cc2)C(=O)N[C@@H](CCCCN)C(=O)N[C@@H](CC(=O)O)C(=O)N[C@@H](CC(=O)O)C(=O)N[C@@H](CC(=O)O)C(=O)N[C@@H](CC(=O)O)C(=O)N[C@@H](CCCCN)C(N)=O)NC(=O)[C@H](Cc2c[nH]cn2)NC(=O)[C@H](Cc2ccc(O)cc2)NC(=O)[C@H](C(C)C)NC(=O)[C@H]([C@@H](C)O)NC(=O)[C@H]([C@@H](C)CC)NC(=O)[C@H](Cc2ccc(O)cc2)NC(=O)[C@H](CC(=O)O)NC(=O)[C@H](Cc2ccccc2)NC(=O)[C@H](C(C)C)NC1=O (Ac-MCYDIVFDYITVYHCGSGSDYKDDDDK-NH2; disulfide 2-15)
FGF-R4 ECD; [1]
  Kd: 21 nM
FGF-R3C ECD
  Kd: > 10000 nM
FGF-R1C ECD
  Kd: > 10000 nM

## CSCC[C@H](NC(C)=O)C(=O)N[C@H]1CSSC[C@@H](C(=O)NCC(=O)N[C@@H](CO)C(=O)NCC(=O)N[C@@H](CO)C(=O)N[C@@H](CC(=O)O)C(=O)N[C@@H](Cc2ccc(O)cc2)C(=O)N[C@@H](CCCCN)C(=O)N[C@@H](CC(=O)O)C(=O)N[C@@H](CC(=O)O)C(=O)N[C@@H](CC(=O)O)C(=O)N[C@@H](CC(=O)O)C(=O)N[C@@H](CCCCN)C(N)=O)NC(=O)[C@H](CC(=O)O)NC(=O)[C@H](CCCNC(=N)N)NC(=O)[C@H](Cc2c[nH]c3ccccc23)NC(=O)[C@H](CC(=O)O)NC(=O)[C@H](Cc2c[nH]cn2)NC(=O)[C@H](Cc2c[nH]c3ccccc23)NC(=O)[C@H](CC(=O)O)NC(=O)[C@H](Cc2ccc(O)cc2)NC(=O)[C@H](Cc2ccc(O)cc2)NC(=O)[C@H](CC(=O)O)NC(=O)[C@H](Cc2ccc(O)cc2)NC(=O)[C@@H]2CCCN2C1=O (Ac-MCPYDYYDWHDWRDCGSGSDYKDDDDK-NH2; disulfide 2-15)
FGF-R4 ECD; [1]
  Kd: 1590 nM
FGF-R3C ECD
  Kd: > 10000 nM
FGF-R1C ECD
  Kd: > 10000 nM

## CC[C@H](C)[C@@H]1NC(=O)[C@H](CCCCN)NC(=O)[C@H](Cc2ccc(O)cc2)NC(=O)[C@H](CC(C)C)NC(=O)[C@H](CC(C)C)NC(=O)[C@H](C)NC(=O)[C@H](Cc2ccccc2)NC(=O)[C@@H](NC(=O)[C@H](CCSC)NC(C)=O)CSSC[C@@H](C(=O)NCC(=O)N[C@@H](CO)C(=O)NCC(=O)N[C@@H](CO)C(=O)N[C@@H](CC(=O)O)C(=O)N[C@@H](Cc2ccc(O)cc2)C(=O)N[C@@H](CCCCN)C(=O)N[C@@H](CC(=O)O)C(=O)N[C@@H](CC(=O)O)C(=O)N[C@@H](CC(=O)O)C(=O)N[C@@H](CC(=O)O)C(=O)N[C@@H](CCCCN)C(N)=O)NC(=O)[C@H](CCCNC(=N)N)NC(=O)[C@H](CO)NC(=O)[C@H](CC(C)C)NC1=O (Ac-MCFALLYKILSRCGSGSDYKDDDDK-NH2; disulfide 2-13)
FGF-R4 ECD; [2]
  Kd: > 10000 nM
FGF-R3C ECD
  Kd: > 10000 nM
FGF-R1C ECD
  Kd: > 10000 nM

## CC[C@H](C)[C@@H]1NC(=O)[C@H](CC(N)=O)NC(=O)[C@H](Cc2ccc(O)cc2)NC(=O)[C@@H](NC(=O)[C@H](CCSC)NC(C)=O)CSSC[C@@H](C(=O)NCC(=O)N[C@@H](CO)C(=O)NCC(=O)N[C@@H](CO)C(=O)N[C@@H](CC(=O)O)C(=O)N[C@@H](Cc2ccc(O)cc2)C(=O)N[C@@H](CCCCN)C(=O)N[C@@H](CC(=O)O)C(=O)N[C@@H](CC(=O)O)C(=O)N[C@@H](CC(=O)O)C(=O)N[C@@H](CC(=O)O)C(=O)N[C@@H](CCCCN)C(N)=O)NC(=O)[C@H](CCC(=O)O)NC(=O)[C@H](CCCNC(=N)N)NC(=O)[C@H](CCCNC(=N)N)NC(=O)[C@H](C(C)C)NC(=O)[C@H](Cc2ccc(O)cc2)NC(=O)[C@H](CCCCN)NC(=O)[C@H](Cc2ccc(O)cc2)NC(=O)[C@H](Cc2c[nH]c3ccccc23)NC(=O)[C@H](Cc2ccc(O)cc2)NC1=O (Ac-MCYNIYWYKYVRRECGSGSDYKDDDDK-NH2; disulfide 2-15)
FGF-R4 ECD; [1]
  Kd: 1 nM
FGF-R3C ECD
  Kd: > 10000 nM
FGF-R1C ECD
  Kd: 387 nM

## CSCC[C@H](NC(C)=O)C(=O)N[C@H]1CSSC[C@@H](C(=O)NCC(=O)N[C@@H](CO)C(=O)NCC(=O)N[C@@H](CO)C(=O)N[C@@H](CC(=O)O)C(=O)N[C@@H](Cc2ccc(O)cc2)C(=O)N[C@@H](CCCCN)C(=O)N[C@@H](CC(=O)O)C(=O)N[C@@H](CC(=O)O)C(=O)N[C@@H](CC(=O)O)C(=O)N[C@@H](CC(=O)O)C(=O)N[C@@H](CCCCN)C(N)=O)NC(=O)[C@H](CCC(N)=O)NC(=O)[C@H](CCCNC(=N)N)NC(=O)[C@H](CCCCN)NC(=O)[C@H](C(C)C)NC(=O)[C@H](CC(C)C)NC(=O)[C@H](CC(C)C)NC(=O)[C@H](Cc2ccc(O)cc2)NC(=O)[C@H](Cc2ccc(O)cc2)NC(=O)[C@H](Cc2ccccc2)NC(=O)[C@H](CC(C)C)NC(=O)[C@H](Cc2c[nH]cn2)NC(=O)[C@H](CCC(=O)O)NC1=O (Ac-MCEHLFYYLLVKRQCGSGSDYKDDDDK-NH2; disulfide 2-15)
FGF-R4 ECD; [1]
  Kd: 1 nM
FGF-R3C ECD
  Kd: > 10000 nM
FGF-R1C ECD
  Kd: > 10000 nM

## CC[C@H](C)[C@@H]1NC(=O)[C@H](CCCCN)NC(=O)[C@H](Cc2ccc(O)cc2)NC(=O)[C@H](Cc2c[nH]c3ccccc23)NC(=O)[C@H]([C@@H](C)CC)NC(=O)[C@H](C(C)C)NC(=O)[C@H](CCC(=O)O)NC(=O)[C@@H](NC(=O)[C@H](CCSC)NC(C)=O)CSSC[C@@H](C(=O)NCC(=O)N[C@@H](CO)C(=O)NCC(=O)N[C@@H](CO)C(=O)N[C@@H](CC(=O)O)C(=O)N[C@@H](Cc2ccc(O)cc2)C(=O)N[C@@H](CCCCN)C(=O)N[C@@H](CC(=O)O)C(=O)N[C@@H](CC(=O)O)C(=O)N[C@@H](CC(=O)O)C(=O)N[C@@H](CC(=O)O)C(=O)N[C@@H](CCCCN)C(N)=O)NC(=O)[C@H](CCCCN)NC(=O)[C@H](CCCNC(=N)N)NC(=O)[C@H](Cc2c[nH]c3ccccc23)NC(=O)[C@H](CCC(N)=O)NC1=O (Ac-MCEVIWYKIQWRKCGSGSDYKDDDDK-NH2; disulfide 2-14)
FGF-R4 ECD; [1]
  Kd: 12 nM
FGF-R3C ECD
  Kd: > 10000 nM
FGF-R1C ECD
  Kd: > 10000 nM

## CC[C@H](C)[C@@H]1NC(=O)[C@@H](NC(=O)[C@H](CCSC)NC(C)=O)CSSC[C@@H](C(=O)NCC(=O)N[C@@H](CO)C(=O)NCC(=O)N[C@@H](CO)C(=O)N[C@@H](CC(=O)O)C(=O)N[C@@H](Cc2ccc(O)cc2)C(=O)N[C@@H](CCCCN)C(=O)N[C@@H](CC(=O)O)C(=O)N[C@@H](CC(=O)O)C(=O)N[C@@H](CC(=O)O)C(=O)N[C@@H](CC(=O)O)C(=O)N[C@@H](CCCCN)C(N)=O)NC(=O)[C@H](C(C)C)NC(=O)[C@H](C(C)C)NC(=O)[C@H](Cc2c[nH]c3ccccc23)NC(=O)[C@H](Cc2ccccc2)NC(=O)[C@H](CC(=O)O)NC(=O)[C@H](CO)NC(=O)[C@H](CC(C)C)NC(=O)[C@H](CCCNC(=N)N)NC(=O)[C@H](Cc2c[nH]cn2)NC1=O (Ac-MCIHRLSDFWVVCGSGSDYKDDDDK-NH2; disulfide 2-13)
FGF-R4 ECD; [2]
  Kd: 41 nM
FGF-R3C ECD
  Kd: 49 nM
FGF-R1C ECD
  Kd: 19 nM
